# From PubChem BioAssay (NCI)
#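 How tested: cells in 96-well plates exposed to compound for 48 hours at five concentrations. GI50 marks 50% less growth. TGI marks complete inhibition of growth.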
# Experiments:
# Test in all cases: growth of human tumour cells (NCI), 48 h
# [1] = system: SK-MEL-5 melanoma
# [2] = system: COLO 205 colon
# [3] = system: HCT-116 colon
# [4] = system: NCI-H226 lung
# [5] = system: SNB-75 CNS
# [6] = system: RPMI-8226 leukemia
# [7] = system: 786-0 renal
# [8] = system: MDA-MB-231 breast
# [9] = system: CAKI-1 renal
# [10] = system: UACC-257 melanoma
# [11] = system: PC-3 prostate
# [12] = system: SK-MEL-2 melanoma
# [13] = system: KM12 colon
# [14] = system: A498 renal
# [15] = system: SK-MEL-28 melanoma
# [16] = system: SN12C renal
# [17] = system: HT29 colon
# [18] = system: OVCAR-3 ovarian
# [19] = system: UO-31 renal
# [20] = system: OVCAR-4 ovarian
# [21] = system: TK-10 renal
# [22] = system: NCI/ADR-RES ovarian
# [23] = system: LOX IMVI melanoma
# [24] = system: EKVX NSCLC
# [25] = system: OVCAR-8 ovarian
# [26] = system: OVCAR-5 ovarian
# [27] = system: SW-620 colon
# [28] = system: RXF 393 renal
# [29] = system: NCI-H460 lung
# [30] = system: HCT-15 colon
# [31] = system: UACC-62 melanoma
# [32] = system: SR leukemia
# [33] = system: MOLT-4 leukemia
# [34] = system: SNB-19 CNS
# [35] = system: U251 CNS
# [36] = system: HL-60(TB) leukemia
# [37] = system: SF-295 CNS
# [38] = system: ACHN renal
# [39] = system: IGROV1 ovarian
# [40] = system: NCI-H23 lung
# [41] = system: BT-549 breast
# [42] = system: HS 578T breast
# [43] = system: HOP-92 NSCLC
# [44] = system: SF-539 CNS
# [45] = system: MALME-3M melanoma
# [46] = system: A549 NSCLC
# [47] = system: HCC-2998 colon
# [48] = system: DU-145 prostate
# [49] = system: HOP-62 NSCLC
# [50] = system: MCF7 breast
# [51] = system: K-562 leukemia
# [52] = system: M14 melanoma
# [53] = system: SK-OV-3 ovarian
# [54] = system: T-47D breast
# [55] = system: NCI-H522 lung
# [56] = system: MDA-MB-435
# [57] = system: CCRF-CEM leukemia
# [58] = system: SF-268 CNS
smiles,measurement,setting,value
CC(=O)N1CCC(Nc2cc(C(=O)NC[C@H](O)CN3CCc4ccccc4C3)ncn2)CC1,GI50,[1],> 100 µM
same,TGI,[1],> 100 µM
same,GI50,[2],> 100 µM
same,TGI,[2],> 100 µM
same,GI50,[3],> 100 µM
same,TGI,[3],> 100 µM
same,GI50,[4],> 100 µM
same,TGI,[4],> 100 µM
same,GI50,[5],> 100 µM
same,TGI,[5],> 100 µM
same,GI50,[6],> 100 µM
same,TGI,[6],> 100 µM
same,GI50,[7],> 100 µM
same,TGI,[7],> 100 µM
same,GI50,[8],> 100 µM
same,TGI,[8],> 100 µM
same,GI50,[9],> 100 µM
same,TGI,[9],> 100 µM
same,GI50,[10],> 100 µM
same,TGI,[10],> 100 µM
same,GI50,[11],> 100 µM
same,TGI,[11],> 100 µM
same,GI50,[12],> 100 µM
same,TGI,[12],> 100 µM
same,GI50,[13],> 100 µM
same,TGI,[13],> 100 µM
same,GI50,[14],> 100 µM
same,TGI,[14],> 100 µM
same,GI50,[15],> 100 µM
same,TGI,[15],> 100 µM
same,GI50,[16],> 100 µM
same,TGI,[16],> 100 µM
same,GI50,[17],> 100 µM
same,TGI,[17],> 100 µM
same,GI50,[18],> 100 µM
same,TGI,[18],> 100 µM
same,GI50,[19],> 100 µM
same,TGI,[19],> 100 µM
same,GI50,[20],> 100 µM
same,TGI,[20],> 100 µM
same,GI50,[21],> 100 µM
same,TGI,[21],> 100 µM
same,GI50,[22],> 100 µM
same,TGI,[22],> 100 µM
same,GI50,[23],> 100 µM
same,TGI,[23],> 100 µM
same,GI50,[24],> 100 µM
same,TGI,[24],> 100 µM
same,GI50,[25],> 100 µM
same,TGI,[25],> 100 µM
same,GI50,[26],> 100 µM
same,TGI,[26],> 100 µM
same,GI50,[27],> 100 µM
same,TGI,[27],> 100 µM
same,GI50,[28],> 100 µM
same,TGI,[28],> 100 µM
same,GI50,[29],> 100 µM
same,TGI,[29],> 100 µM
same,GI50,[30],> 100 µM
same,TGI,[30],> 100 µM
same,GI50,[31],> 100 µM
same,TGI,[31],> 100 µM
same,GI50,[32],> 100 µM
same,TGI,[32],> 100 µM
same,GI50,[33],> 100 µM
same,TGI,[33],> 100 µM
same,GI50,[34],> 100 µM
same,TGI,[34],> 100 µM
same,GI50,[35],> 100 µM
same,TGI,[35],> 100 µM
same,GI50,[36],> 100 µM
same,TGI,[36],> 100 µM
same,GI50,[37],> 100 µM
same,TGI,[37],> 100 µM
same,GI50,[38],> 100 µM
same,TGI,[38],> 100 µM
same,GI50,[39],> 100 µM
same,TGI,[39],> 100 µM
same,GI50,[40],> 100 µM
same,TGI,[40],> 100 µM
same,GI50,[41],> 100 µM
same,TGI,[41],> 100 µM
same,GI50,[42],> 100 µM
same,TGI,[42],> 100 µM
same,GI50,[43],91.9 µM
same,TGI,[43],> 100 µM
same,GI50,[44],> 100 µM
same,TGI,[44],> 100 µM
same,GI50,[45],> 100 µM
same,TGI,[45],> 100 µM
same,GI50,[46],> 100 µM
same,TGI,[46],> 100 µM
same,GI50,[47],> 100 µM
same,TGI,[47],> 100 µM
same,GI50,[48],> 100 µM
same,TGI,[48],> 100 µM
same,GI50,[49],> 100 µM
same,TGI,[49],> 100 µM
same,GI50,[50],> 100 µM
same,TGI,[50],> 100 µM
same,GI50,[51],> 100 µM
same,TGI,[51],> 100 µM
same,GI50,[52],> 100 µM
same,TGI,[52],> 100 µM
same,GI50,[53],> 100 µM
same,TGI,[53],> 100 µM
same,GI50,[54],> 100 µM
same,TGI,[54],> 100 µM
same,GI50,[55],> 100 µM
same,TGI,[55],> 100 µM
same,GI50,[56],> 100 µM
same,TGI,[56],> 100 µM
same,GI50,[57],> 100 µM
same,TGI,[57],> 100 µM
same,GI50,[58],> 100 µM
same,TGI,[58],> 100 µM
